Assay results taken from patent publication US12252524B2, “GIP/GLP1 co-agonist compounds” (Eli Lilly and Company, priority 2018, dated 2025).
Numbered stars: 1 amine (or outer) side, 2 acyl side, 3 side chain; on linkers, the order of the positions; unused ones are H or OH. Square brackets hold non-standard residues; d marks the D form. Side chains are listed from the residue outwards. Peptide text beside a SMILES is read from it. * marks the point of attachment. C20 diacid = O=C(O)CCCCCCCCCCCCCCCCCCC(=O)*; C18 diacid = O=C(O)CCCCCCCCCCCCCCCCC(=O)*; αMePhe(2-F) = C[C@](N)(Cc1ccccc1F)C(=O)O; γGlu = O=C(O)[C@H](CCC(=O)[*:2])N[*:1]; αMeY = C[C@](N)(Cc1ccc(O)cc1)C(=O)O; αMeF = C[C@](N)(Cc1ccccc1)C(=O)O; 4Pal = N[C@@H](Cc1ccncc1)C(=O)O; αMeL = CC(C)C[C@](C)(N)C(=O)O; AEEA = NCCOCCOCC(=O)O; Aib = CC(C)(N)C(=O)O

Assays:
human GLP-1R = human GLP-1R (Homo sapiens, UniProt P43220); experiment: [125I]-GLP-1 binding (SPA), human GLP-1 receptor; parameters: expressed in transfected cells; crude membranes; conditions: read-out: hGLP1R Ki, (nM) (SEM, n)
Summary of the method: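 Assay buffer: HEPES 25 mM, pH 7.4, CaCl2 2.5 mM, MgCl2 1 mM, with EDTA-free protease inhibitors. Receptor came from crude cell membranes prepared by homogenization and centrifugation at 4° C. IC50s came from four-parameter fits (maximum, minimum, IC50, Hill slope) and were expressed as Ki geometric means with SEM.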

[1] = biological target: human GLP-1 receptor (GLP-1R) (Homo sapiens, UniProt P43220); experiment: cAMP pharmacological functional assay in presence of casein, hGLP-1R; assay type: cell-based; conditions: HEK293 cells expressing hGLP-1R, 0.1% Casein, geometric mean; read-out: hGLP1R cAMP Rel EC50 nM (SEM, n)
[2] = biological target: T1, gastric inhibitory peptide receptor (GIPR) (Homo sapiens, UniProt P48546); experiment: cAMP pharmacological functional assay in presence of casein, hGIPR; assay type: cell-based; conditions: HEK293 cells expressing hGIPR, 0.1% Casein, geometric mean; read-out: hGIPR cAMP Rel EC50 nM (SEM, n)
T1 sequence (P48546 22-466): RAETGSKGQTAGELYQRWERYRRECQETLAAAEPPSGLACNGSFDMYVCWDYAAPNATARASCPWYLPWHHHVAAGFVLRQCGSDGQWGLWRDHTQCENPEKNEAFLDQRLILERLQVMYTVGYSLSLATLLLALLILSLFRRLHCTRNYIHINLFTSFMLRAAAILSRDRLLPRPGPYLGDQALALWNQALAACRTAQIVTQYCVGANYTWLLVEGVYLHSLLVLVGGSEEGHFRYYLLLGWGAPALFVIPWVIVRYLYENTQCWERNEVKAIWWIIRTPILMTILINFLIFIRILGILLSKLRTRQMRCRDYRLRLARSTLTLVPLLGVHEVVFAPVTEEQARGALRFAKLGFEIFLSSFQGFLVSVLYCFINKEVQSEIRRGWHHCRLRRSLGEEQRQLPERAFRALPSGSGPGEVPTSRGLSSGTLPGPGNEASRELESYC

human GIP receptor = biological target: T2, human GIP receptor (Homo sapiens, UniProt P48546); experiment: [125I]-GIP binding (SPA), human GIP receptor; conditions: read-out: hGIPR Ki, nM (SEM, n)
T2 construct: expressed in transfected cells; crude membranes
T2 sequence (P48546 22-466): T1 sequence (P48546 22-466)

human Gcg receptor = biological target: T3, human Gcg receptor (Homo sapiens, UniProt P47871); experiment: [125I]-Glucagon binding (SPA), human Gcg receptor; conditions: read-out: hGLcgR Ki, nM (SEM, n)
T3 construct: expressed in transfected cells; crude membranes
Summary of the method: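 Scintillation counts are taken after membranes and WGA beads incubate and settle for 12 hours at room temperature. Buffer is 25 mM HEPES, pH 7.4, with CaCl2, MgCl2, bacitracin and Tween-20. Ki values, from four-parameter IC50 fits, are geometric means over independent days.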

Sequence of human GLP-1 receptor (GLP-1R) (P43220 24-463): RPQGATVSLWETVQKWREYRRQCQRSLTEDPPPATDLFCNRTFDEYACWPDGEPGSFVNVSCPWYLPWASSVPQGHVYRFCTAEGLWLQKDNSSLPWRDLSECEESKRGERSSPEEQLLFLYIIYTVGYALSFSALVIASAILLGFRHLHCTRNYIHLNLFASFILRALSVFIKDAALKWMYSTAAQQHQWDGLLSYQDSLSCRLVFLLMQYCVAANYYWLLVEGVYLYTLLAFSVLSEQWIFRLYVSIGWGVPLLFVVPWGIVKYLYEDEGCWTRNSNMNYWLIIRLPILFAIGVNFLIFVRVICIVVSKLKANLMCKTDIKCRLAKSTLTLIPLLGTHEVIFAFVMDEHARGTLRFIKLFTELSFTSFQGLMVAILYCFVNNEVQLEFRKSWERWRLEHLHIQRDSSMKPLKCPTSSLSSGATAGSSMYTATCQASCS
Sequence of human GLP-1R (P43220 24-463): as above
T3 sequence (P47871 26-477): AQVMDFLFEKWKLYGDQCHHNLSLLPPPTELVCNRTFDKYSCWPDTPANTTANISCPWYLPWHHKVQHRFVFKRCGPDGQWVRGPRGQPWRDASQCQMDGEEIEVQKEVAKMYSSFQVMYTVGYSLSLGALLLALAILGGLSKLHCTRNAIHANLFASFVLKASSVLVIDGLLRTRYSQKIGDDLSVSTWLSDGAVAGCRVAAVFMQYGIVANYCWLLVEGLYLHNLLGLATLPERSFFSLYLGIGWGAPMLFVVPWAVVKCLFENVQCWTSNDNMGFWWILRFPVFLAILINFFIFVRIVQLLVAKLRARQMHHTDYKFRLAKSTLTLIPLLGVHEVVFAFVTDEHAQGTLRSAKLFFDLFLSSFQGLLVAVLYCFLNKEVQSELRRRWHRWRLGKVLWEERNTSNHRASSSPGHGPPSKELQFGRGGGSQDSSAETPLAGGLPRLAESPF

Row | Structure (SMILES) | Ki (human GLP-1R) [nM] | EC50 [1] [nM] | EC50 [2] [nM] | Ki (human GIP receptor) [nM] | Ki (human Gcg receptor) [nM]
1 | CC[C@H](C)[C@H](NC(=O)[C@H](CC(C)C)NC(=O)[C@H](Cc1ccc(O)cc1)NC(=O)[C@@H](CCC(=O)O)NC(=O)[C@@H](NC(=O)[C@H](Cc1ccccc1)NC(=O)[C@H](CCC(=O)O)NC(=O)C(C)(C)NC(=O)[C@H](CCC(N)=O)NC(=O)[C@H](C)NC(=O)[C@H](CCCCNC(=O)COCCOCCNC(=O)COCCOCCNC(=O)CC[C@H](NC(=O)CCCCCCCCCCCCCCCCCCC(=O)O)C(=O)O)NC(=O)[C@H](CCCCN)NC(=O)[C@H](CC(=O)O)NC(=O)[C@H](CC(C)C)NC(=O)[C@](C)(CC(C)C)NC(=O)[C@@H](NC(=O)[C@H](CO)NC(=O)[C@H](Cc1ccncc1)NC(=O)[C@H](CC(=O)O)NC(=O)[C@H](CO)NC(=O)[C@@H](NC(=O)[C@](C)(Cc1ccccc1F)NC(=O)[C@@H](NC(=O)CNC(=O)[C@H](CCC(=O)O)NC(=O)C(C)(C)NC(=O)[C@@H](N)Cc1ccc(O)cc1)[C@@H](C)O)[C@@H](C)O)[C@@H](C)CC)[C@@H](C)CC)C(=O)N[C@@H](CCC(=O)O)C(=O)NCC(=O)NCC(=O)N1CCC[C@H]1C(=O)N[C@@H](CO)C(=O)N[C@@H](CO)C(=O)NCC(=O)N[C@@H](C)C(=O)N1CCC[C@H]1C(=O)N1CCC[C@H]1C(=O)N1CCC[C@H]1C(=O)N[C@@H](CO)C(N)=O [Example 203] (H-Y[Aib]EGT[αMePhe(2-F)]TSD[4Pal]SI[αMeL]LDKK([AEEA-AEEA-γGlu-C20 diacid])AQ[Aib]EFI[dE]YLIEGGPSSGAPPPS-NH2; N-terminus assumed) | 3.9 | 0.0679 | 0.0387 | 0.0337 | 845
2 | CC[C@H](C)[C@H](NC(=O)[C@H](CC(C)C)NC(=O)[C@](C)(Cc1ccc(O)cc1)NC(=O)[C@H](CCC(=O)O)NC(=O)[C@@H](NC(=O)[C@H](Cc1ccccc1)NC(=O)[C@H](CCC(=O)O)NC(=O)C(C)(C)NC(=O)[C@H](CCC(N)=O)NC(=O)[C@H](C)NC(=O)[C@H](CCCCNC(=O)COCCOCCNC(=O)COCCOCCNC(=O)CC[C@H](NC(=O)CCCCCCCCCCCCCCCCCCC(=O)O)C(=O)O)NC(=O)[C@H](CCC(=O)O)NC(=O)[C@H](CC(=O)O)NC(=O)[C@H](CC(C)C)NC(=O)[C@](C)(CC(C)C)NC(=O)[C@@H](NC(=O)[C@H](CO)NC(=O)[C@H](Cc1ccc(O)cc1)NC(=O)[C@H](CC(=O)O)NC(=O)[C@H](CO)NC(=O)[C@@H](NC(=O)[C@](C)(Cc1ccccc1F)NC(=O)[C@@H](NC(=O)CNC(=O)[C@H](CCC(=O)O)NC(=O)C(C)(C)NC(=O)[C@@H](N)Cc1ccc(O)cc1)[C@@H](C)O)[C@@H](C)O)[C@@H](C)CC)[C@@H](C)CC)C(=O)N[C@@H](CCC(=O)O)C(=O)NCC(=O)NCC(=O)N1CCC[C@H]1C(=O)N[C@@H](CO)C(=O)N[C@@H](CO)C(=O)NCC(=O)N[C@@H](C)C(=O)N1CCC[C@H]1C(=O)N1CCC[C@H]1C(=O)N1CCC[C@H]1C(=O)N[C@@H](CO)C(N)=O [Example 223] (H-Y[Aib]EGT[αMePhe(2-F)]TSDYSI[αMeL]LDEK([AEEA-AEEA-γGlu-C20 diacid])AQ[Aib]EFIE[αMeY]LIEGGPSSGAPPPS-NH2) | 5.62 | 0.0363 | 0.067 | 0.0921 | 46.5
3 | CC[C@H](C)[C@H](NC(=O)[C@H](CC(C)C)NC(=O)[C@H](Cc1ccc(O)cc1)NC(=O)[C@H](CCC(=O)O)NC(=O)[C@@H](NC(=O)[C@H](Cc1ccccc1)NC(=O)[C@H](C)NC(=O)C(C)(C)NC(=O)[C@H](CCC(N)=O)NC(=O)[C@H](C)NC(=O)[C@H](CCCCNC(=O)COCCOCCNC(=O)COCCOCCNC(=O)CC[C@H](NC(=O)CCCCCCCCCCCCCCCCCCC(=O)O)C(=O)O)NC(=O)[C@H](CCCCN)NC(=O)[C@H](CC(=O)O)NC(=O)[C@H](CC(C)C)NC(=O)[C@](C)(CC(C)C)NC(=O)[C@@H](NC(=O)[C@H](CO)NC(=O)[C@H](C)NC(=O)[C@H](CC(=O)O)NC(=O)[C@H](CO)NC(=O)[C@@H](NC(=O)[C@](C)(Cc1ccccc1)NC(=O)[C@@H](NC(=O)CNC(=O)[C@H](CCC(=O)O)NC(=O)C(C)(C)NC(=O)[C@@H](N)Cc1ccc(O)cc1)[C@@H](C)O)[C@@H](C)O)[C@@H](C)CC)[C@@H](C)CC)C(=O)N[C@@H](CCC(=O)O)C(=O)NCC(=O)NCC(=O)N1CCC[C@H]1C(=O)N[C@@H](CO)C(=O)N[C@@H](CO)C(=O)NCC(=O)N[C@@H](C)C(=O)N1CCC[C@H]1C(=O)N1CCC[C@H]1C(=O)N1CCC[C@H]1C(=O)N[C@@H](CO)C(N)=O [Example 145] (H-Y[Aib]EGT[αMeF]TSDASI[αMeL]LDKK([AEEA-AEEA-γGlu-C20 diacid])AQ[Aib]AFIEYLIEGGPSSGAPPPS-NH2) | 2.22 | 0.0427 | 0.0514 | 0.0652 | 158
4 | CC[C@H](C)[C@H](NC(=O)[C@H](CC(C)C)NC(=O)[C@H](Cc1ccc(O)cc1)NC(=O)[C@H](CCC(=O)O)NC(=O)[C@@H](NC(=O)[C@](C)(Cc1ccccc1)NC(=O)[C@H](C)NC(=O)C(C)(C)NC(=O)[C@H](CCC(N)=O)NC(=O)[C@H](C)NC(=O)[C@H](CCCCNC(=O)COCCOCCNC(=O)COCCOCCNC(=O)CC[C@H](NC(=O)CCCCCCCCCCCCCCCCCCC(=O)O)C(=O)O)NC(=O)[C@H](CCCCN)NC(=O)[C@H](CC(=O)O)NC(=O)[C@H](CC(C)C)NC(=O)[C@](C)(CC(C)C)NC(=O)[C@@H](NC(=O)[C@H](CO)NC(=O)[C@H](Cc1ccc(O)cc1)NC(=O)[C@H](CC(=O)O)NC(=O)[C@H](CO)NC(=O)[C@@H](NC(=O)[C@H](Cc1ccccc1)NC(=O)[C@@H](NC(=O)CNC(=O)[C@H](CCC(=O)O)NC(=O)C(C)(C)NC(=O)[C@@H](N)Cc1ccc(O)cc1)[C@@H](C)O)[C@@H](C)O)[C@@H](C)CC)[C@@H](C)CC)C(=O)N[C@@H](CCC(=O)O)C(=O)NCC(=O)NCC(=O)N1CCC[C@H]1C(=O)N[C@@H](CO)C(=O)N[C@@H](CO)C(=O)NCC(=O)N[C@@H](C)C(=O)N1CCC[C@H]1C(=O)N1CCC[C@H]1C(=O)N1CCC[C@H]1C(=O)N[C@@H](CO)C(N)=O [Example 74] | 5.99 | 0.467 | 0.0866 | 0.0279 | 69.8
5 | CC[C@H](C)[C@H](NC(=O)[C@H](CC(C)C)NC(=O)[C@H](Cc1ccc(O)cc1)NC(=O)[C@H](CCC(=O)O)NC(=O)[C@H](CC(C)C)NC(=O)[C@H](Cc1ccccc1)NC(=O)[C@H](C)NC(=O)C(C)(C)NC(=O)[C@H](CCC(N)=O)NC(=O)[C@H](C)NC(=O)[C@H](CCCCNC(=O)COCCOCCNC(=O)COCCOCCNC(=O)CC[C@H](NC(=O)CCCCCCCCCCCCCCCCC(=O)O)C(=O)O)NC(=O)[C@H](CCCCN)NC(=O)[C@H](CC(=O)O)NC(=O)[C@H](CC(C)C)NC(=O)[C@H](CC(C)C)NC(=O)[C@@H](NC(=O)[C@H](CO)NC(=O)[C@H](Cc1ccc(O)cc1)NC(=O)[C@H](CC(=O)O)NC(=O)[C@H](CO)NC(=O)[C@@H](NC(=O)[C@H](Cc1ccccc1)NC(=O)[C@@H](NC(=O)CNC(=O)[C@H](CCC(=O)O)NC(=O)C(C)(C)NC(=O)[C@@H](N)Cc1ccc(O)cc1)[C@@H](C)O)[C@@H](C)O)[C@@H](C)CC)C(=O)N[C@@H](CCC(=O)O)C(=O)NCC(=O)NCC(=O)N1CCC[C@H]1C(=O)N[C@@H](CO)C(=O)N[C@@H](CO)C(=O)NCC(N)=O [Example 299] (H-Y[Aib]EGTFTSDYSILLDKK([AEEA-AEEA-γGlu-C18 diacid])AQ[Aib]AFLEYLIEGGPSSG-NH2) | 54.3 | 2.54 | 0.932 | 0.734 | > 1040
